Results: PMC9569420 (Communications Biology, 2022)
pIC50: −log10 of the molar value.

Assays:
[1] = target: T1, RON/MST1R (Homo sapiens, UniProt Q04912); experiment: HotSpot kinase assay; format: biochemical; details: read-out: % Enzyme Activity (relative to DMSO controls)
T1 construct: purchased Reaction Biology Corporation

[2] = target: T2, CAMK2a (Homo sapiens, UniProt Q9UQM7); experiment: HotSpot kinase assay; format: biochemical; details: read-out: % Enzyme Activity (relative to DMSO controls)
T2 construct: purchased Reaction Biology Corporation

[3] = target: T3, MELK (Homo sapiens, UniProt Q14680); experiment: HotSpot kinase assay; format: biochemical; details: read-out: % Enzyme Activity (relative to DMSO controls)
T3 construct: purchased Reaction Biology Corporation

[4] = target: T4, CSK (Homo sapiens, UniProt P41240); experiment: HotSpot kinase assay; format: biochemical; details: read-out: % Enzyme Activity (relative to DMSO controls)
T4 construct: purchased Reaction Biology Corporation

[5] = target: T5, ITK (Homo sapiens, UniProt Q08881); experiment: HotSpot kinase assay; format: biochemical; details: read-out: % Enzyme Activity (relative to DMSO controls)
T5 construct: purchased Reaction Biology Corporation

[6] = target: T6, PAK1 (Homo sapiens, UniProt Q13153); experiment: HotSpot kinase assay; format: biochemical; details: read-out: % Enzyme Activity (relative to DMSO controls)
T6 construct: purchased Reaction Biology Corporation

[7] = target: T7, MNK2 (Homo sapiens, UniProt Q9HBH9); experiment: HotSpot kinase assay; format: biochemical; details: read-out: % Enzyme Activity (relative to DMSO controls)
T7 construct: purchased Reaction Biology Corporation

[8] = target: T8, CK1a1 (Homo sapiens, UniProt P48729); experiment: HotSpot kinase assay; format: biochemical; details: read-out: % Enzyme Activity (relative to DMSO controls)
T8 construct: purchased Reaction Biology Corporation

[9] = target: T9, MARK4 (Homo sapiens, UniProt Q96L34); experiment: HotSpot kinase assay; format: biochemical; details: read-out: % Enzyme Activity (relative to DMSO controls)
T9 construct: purchased Reaction Biology Corporation

[10] = target: T10, FES/FPS (Homo sapiens, UniProt P07332); experiment: HotSpot kinase assay; format: biochemical; details: read-out: % Enzyme Activity (relative to DMSO controls)
T10 construct: purchased Reaction Biology Corporation

[11] = target: T11, RSK3 (Homo sapiens, UniProt Q15349); experiment: HotSpot kinase assay; format: biochemical; details: read-out: % Enzyme Activity (relative to DMSO controls)
T11 construct: purchased Reaction Biology Corporation

[12] = target: T12, EIF2AK2 (Homo sapiens, UniProt P19525); experiment: HotSpot kinase assay; format: biochemical; details: read-out: % Enzyme Activity (relative to DMSO controls)
T12 construct: purchased Reaction Biology Corporation

[13] = target: T13, DMPK2 (Homo sapiens, UniProt Q6DT37); experiment: HotSpot kinase assay; format: biochemical; details: read-out: % Enzyme Activity (relative to DMSO controls)
T13 construct: purchased Reaction Biology Corporation

[14] = target: T14, CDK6/cyclin D1 (Homo sapiens, UniProt Q00534); experiment: HotSpot kinase assay; format: biochemical; details: read-out: % Enzyme Activity (relative to DMSO controls)
T14 construct: purchased Reaction Biology Corporation

[15] = target: T15, ERBB4/HER4 (Homo sapiens, UniProt Q15303); experiment: HotSpot kinase assay; format: biochemical; details: read-out: % Enzyme Activity (relative to DMSO controls)
T15 construct: purchased Reaction Biology Corporation

[16] = target: T16, NEK5 (Homo sapiens, UniProt Q6P3R8); experiment: HotSpot kinase assay; format: biochemical; details: read-out: % Enzyme Activity (relative to DMSO controls)
T16 construct: purchased Reaction Biology Corporation

[17] = target: T17, ERN1/IRE1 (Homo sapiens, UniProt O75460); experiment: HotSpot kinase assay; format: biochemical; details: read-out: % Enzyme Activity (relative to DMSO controls)
T17 construct: purchased Reaction Biology Corporation

[18] = target: T18, SSTK/TSSK6 (Homo sapiens, UniProt Q9BXA6); experiment: HotSpot kinase assay; format: biochemical; details: read-out: % Enzyme Activity (relative to DMSO controls)
T18 construct: purchased Reaction Biology Corporation

[19] = target: T19, TNK1 (Homo sapiens, UniProt Q13470); experiment: HotSpot kinase assay; format: biochemical; details: read-out: % Enzyme Activity (relative to DMSO controls)
T19 construct: purchased Reaction Biology Corporation

[20] = target: T20, PKA (Homo sapiens, UniProt P17612); experiment: HotSpot kinase assay; format: biochemical
T20 construct: purchased Reaction Biology Corporation

[21] = target: T21, GRK2 (Homo sapiens, UniProt P25098); experiment: biochemical; details: read-out: % Enzyme Activity (relative to DMSO controls)
T21 construct: purchased Reaction Biology Corporation

[22] = target: T22, MRCKb/CDC42BPB (Homo sapiens, UniProt Q9Y5S2); experiment: HotSpot kinase assay; format: biochemical; details: read-out: % Enzyme Activity (relative to DMSO controls)
T22 construct: purchased Reaction Biology Corporation

[23] = target: T23, MEK3 (Homo sapiens, UniProt P46734); experiment: HotSpot kinase assay; format: biochemical; details: read-out: % Enzyme Activity (relative to DMSO controls)
T23 construct: purchased Reaction Biology Corporation

[24] = target: T24, STK22D/TSSK1 (Homo sapiens, UniProt Q9BXA7); experiment: HotSpot kinase assay; format: biochemical; details: read-out: % Enzyme Activity (relative to DMSO controls)
T24 construct: purchased Reaction Biology Corporation

[25] = target: T25, SIK2 (Homo sapiens, UniProt Q9H0K1); experiment: HotSpot kinase assay; format: biochemical; details: read-out: % Enzyme Activity (relative to DMSO controls)
T25 construct: purchased Reaction Biology Corporation

[26] = target: T26, MST1/STK4 (Homo sapiens, UniProt Q13043); experiment: HotSpot kinase assay; format: biochemical; details: read-out: % Enzyme Activity (relative to DMSO controls)
T26 construct: purchased Reaction Biology Corporation

[27] = target: T27, CAMK2d (Homo sapiens, UniProt Q13557); experiment: HotSpot kinase assay; format: biochemical; details: read-out: % Enzyme Activity (relative to DMSO controls)
T27 construct: purchased Reaction Biology Corporation

[28] = target: T28, DDR2 (Homo sapiens, UniProt Q16832); experiment: HotSpot kinase assay; format: biochemical; details: read-out: % Enzyme Activity (relative to DMSO controls)
T28 construct: purchased Reaction Biology Corporation

[29] = target: T29, PAK5 (Homo sapiens, UniProt Q9P286); experiment: HotSpot kinase assay; format: biochemical; details: read-out: % Enzyme Activity (relative to DMSO controls)
T29 construct: purchased Reaction Biology Corporation

[30] = target: T30, TSSK2 (Homo sapiens, UniProt Q96PF2); experiment: HotSpot kinase assay; format: biochemical; details: read-out: % Enzyme Activity (relative to DMSO controls)
T30 construct: purchased Reaction Biology Corporation

[31] = target: T31, PDGFRb (Homo sapiens, UniProt P09619); experiment: HotSpot kinase assay; format: biochemical; details: read-out: % Enzyme Activity (relative to DMSO controls)
T31 construct: purchased Reaction Biology Corporation

[32] = target: T32, IKKb/IKBKB (Homo sapiens, UniProt O14920); experiment: HotSpot kinase assay; format: biochemical; details: read-out: % Enzyme Activity (relative to DMSO controls)
T32 construct: purchased Reaction Biology Corporation

[33] = target: T33, PIM2 (Homo sapiens, UniProt Q9P1W9); experiment: HotSpot kinase assay; format: biochemical; details: read-out: % Enzyme Activity (relative to DMSO controls)
T33 construct: purchased Reaction Biology Corporation

[34] = target: T34, PAK4 (Homo sapiens, UniProt O96013); experiment: HotSpot kinase assay; format: biochemical; details: read-out: % Enzyme Activity (relative to DMSO controls)
T34 construct: purchased Reaction Biology Corporation

[35] = target: T35, GRK6 (Homo sapiens, UniProt P43250); experiment: HotSpot kinase assay; format: biochemical; details: read-out: % Enzyme Activity (relative to DMSO controls)
T35 construct: purchased Reaction Biology Corporation

[36] = target: T36, PASK (Homo sapiens, UniProt Q96RG2); experiment: HotSpot kinase assay; format: biochemical; details: read-out: % Enzyme Activity (relative to DMSO controls)
T36 construct: purchased Reaction Biology Corporation

[37] = target: T37, EPHA4 (Homo sapiens, UniProt P54764); experiment: HotSpot kinase assay; format: biochemical; details: read-out: % Enzyme Activity (relative to DMSO controls)
T37 construct: purchased Reaction Biology Corporation

[38] = target: T38, TAOK1 (Homo sapiens, UniProt Q7L7X3); experiment: HotSpot kinase assay; format: biochemical; details: read-out: % Enzyme Activity (relative to DMSO controls)
T38 construct: purchased Reaction Biology Corporation

[39] = target: T39, PKCb2 (Homo sapiens, UniProt P05771); experiment: HotSpot kinase assay; format: biochemical; details: read-out: % Enzyme Activity (relative to DMSO controls)
T39 construct: purchased Reaction Biology Corporation

[40] = target: T40, KSR1 (Homo sapiens, UniProt Q8IVT5); experiment: biochemical; details: read-out: % Enzyme Activity (relative to DMSO controls)
T40 construct: purchased Reaction Biology Corporation

[41] = target: T41, PBK/TOPK (Homo sapiens, UniProt Q96KB5); experiment: HotSpot kinase assay; format: biochemical; details: read-out: % Enzyme Activity (relative to DMSO controls)
T41 construct: purchased Reaction Biology Corporation

[42] = target: T42, PKAcb (Homo sapiens, UniProt P22694); experiment: HotSpot kinase assay; format: biochemical; details: read-out: % Enzyme Activity (relative to DMSO controls)
T42 construct: purchased Reaction Biology Corporation

[43] = target: T43, HIPK3 (Homo sapiens, UniProt Q9H422); experiment: HotSpot kinase assay; format: biochemical; details: read-out: % Enzyme Activity (relative to DMSO controls)
T43 construct: purchased Reaction Biology Corporation

T15 sequence (Q15303 26-1308): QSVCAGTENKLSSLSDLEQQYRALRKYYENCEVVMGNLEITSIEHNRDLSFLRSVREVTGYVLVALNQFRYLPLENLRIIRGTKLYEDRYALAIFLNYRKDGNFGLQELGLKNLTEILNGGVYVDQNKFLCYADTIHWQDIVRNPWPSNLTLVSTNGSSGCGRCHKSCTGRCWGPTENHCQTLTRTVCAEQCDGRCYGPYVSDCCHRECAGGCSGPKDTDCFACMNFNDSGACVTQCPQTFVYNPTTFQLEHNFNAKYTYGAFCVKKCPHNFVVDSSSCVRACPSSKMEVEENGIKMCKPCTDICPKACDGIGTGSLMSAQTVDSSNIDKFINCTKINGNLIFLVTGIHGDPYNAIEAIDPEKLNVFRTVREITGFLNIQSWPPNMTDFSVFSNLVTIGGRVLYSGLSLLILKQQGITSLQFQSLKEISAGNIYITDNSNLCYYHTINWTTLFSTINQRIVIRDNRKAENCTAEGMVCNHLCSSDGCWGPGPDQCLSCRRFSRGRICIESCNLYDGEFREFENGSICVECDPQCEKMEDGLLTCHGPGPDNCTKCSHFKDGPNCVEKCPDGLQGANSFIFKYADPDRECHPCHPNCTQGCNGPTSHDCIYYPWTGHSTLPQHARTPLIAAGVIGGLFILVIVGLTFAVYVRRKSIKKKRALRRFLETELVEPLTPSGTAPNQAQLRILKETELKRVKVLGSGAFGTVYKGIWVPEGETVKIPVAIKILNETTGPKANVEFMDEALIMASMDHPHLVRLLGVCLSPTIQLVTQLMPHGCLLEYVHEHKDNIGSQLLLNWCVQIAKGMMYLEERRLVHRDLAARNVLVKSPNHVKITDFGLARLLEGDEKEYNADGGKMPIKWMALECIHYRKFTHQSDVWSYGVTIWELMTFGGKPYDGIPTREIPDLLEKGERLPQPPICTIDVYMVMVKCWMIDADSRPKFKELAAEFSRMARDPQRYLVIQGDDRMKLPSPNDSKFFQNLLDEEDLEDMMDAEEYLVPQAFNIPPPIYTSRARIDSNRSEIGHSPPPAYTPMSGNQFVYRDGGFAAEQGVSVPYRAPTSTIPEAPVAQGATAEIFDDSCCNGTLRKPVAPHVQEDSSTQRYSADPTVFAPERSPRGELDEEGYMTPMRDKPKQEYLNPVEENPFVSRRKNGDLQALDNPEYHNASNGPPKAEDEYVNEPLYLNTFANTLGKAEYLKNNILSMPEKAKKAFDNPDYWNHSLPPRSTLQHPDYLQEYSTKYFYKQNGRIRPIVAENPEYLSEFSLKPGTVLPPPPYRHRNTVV
T30 sequence (Q96PF2 whole entry): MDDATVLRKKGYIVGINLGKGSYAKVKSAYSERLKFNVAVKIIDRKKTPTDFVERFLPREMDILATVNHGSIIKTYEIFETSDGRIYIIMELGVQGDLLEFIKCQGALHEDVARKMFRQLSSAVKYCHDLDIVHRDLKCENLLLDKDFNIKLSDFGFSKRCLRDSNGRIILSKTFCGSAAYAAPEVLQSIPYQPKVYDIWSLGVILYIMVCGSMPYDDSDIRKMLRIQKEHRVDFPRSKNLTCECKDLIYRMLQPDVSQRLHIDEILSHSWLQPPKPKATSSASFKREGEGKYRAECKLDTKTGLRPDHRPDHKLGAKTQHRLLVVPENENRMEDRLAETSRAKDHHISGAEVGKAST
T39 sequence (P05771 1-673 isoform P05771-2): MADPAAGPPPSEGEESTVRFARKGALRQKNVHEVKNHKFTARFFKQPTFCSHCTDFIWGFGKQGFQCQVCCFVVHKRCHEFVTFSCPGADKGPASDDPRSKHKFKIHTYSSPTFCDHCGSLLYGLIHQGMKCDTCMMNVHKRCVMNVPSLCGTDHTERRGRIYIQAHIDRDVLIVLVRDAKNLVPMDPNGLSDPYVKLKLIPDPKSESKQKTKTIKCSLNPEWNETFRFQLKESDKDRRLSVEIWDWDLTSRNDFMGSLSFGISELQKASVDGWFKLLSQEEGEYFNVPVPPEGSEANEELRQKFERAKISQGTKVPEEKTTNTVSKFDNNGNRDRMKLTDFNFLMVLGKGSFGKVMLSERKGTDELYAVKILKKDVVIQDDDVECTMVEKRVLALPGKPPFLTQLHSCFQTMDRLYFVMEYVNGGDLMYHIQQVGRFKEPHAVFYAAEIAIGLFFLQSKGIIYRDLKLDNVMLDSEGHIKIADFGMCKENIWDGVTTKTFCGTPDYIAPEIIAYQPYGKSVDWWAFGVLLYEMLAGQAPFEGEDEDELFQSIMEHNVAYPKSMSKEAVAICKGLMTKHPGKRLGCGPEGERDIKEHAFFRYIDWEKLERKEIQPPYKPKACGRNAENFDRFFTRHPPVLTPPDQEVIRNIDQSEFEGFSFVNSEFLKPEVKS
T41 sequence (Q96KB5 whole entry): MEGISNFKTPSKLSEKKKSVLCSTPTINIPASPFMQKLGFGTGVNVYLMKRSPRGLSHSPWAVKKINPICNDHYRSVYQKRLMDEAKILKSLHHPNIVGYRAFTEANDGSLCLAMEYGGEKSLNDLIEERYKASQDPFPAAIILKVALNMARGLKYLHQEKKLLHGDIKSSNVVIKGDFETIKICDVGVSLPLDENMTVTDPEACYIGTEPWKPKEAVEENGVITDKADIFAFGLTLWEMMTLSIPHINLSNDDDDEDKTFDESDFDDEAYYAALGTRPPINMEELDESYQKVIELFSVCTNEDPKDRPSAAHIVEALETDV
T29 sequence (Q9P286 whole entry): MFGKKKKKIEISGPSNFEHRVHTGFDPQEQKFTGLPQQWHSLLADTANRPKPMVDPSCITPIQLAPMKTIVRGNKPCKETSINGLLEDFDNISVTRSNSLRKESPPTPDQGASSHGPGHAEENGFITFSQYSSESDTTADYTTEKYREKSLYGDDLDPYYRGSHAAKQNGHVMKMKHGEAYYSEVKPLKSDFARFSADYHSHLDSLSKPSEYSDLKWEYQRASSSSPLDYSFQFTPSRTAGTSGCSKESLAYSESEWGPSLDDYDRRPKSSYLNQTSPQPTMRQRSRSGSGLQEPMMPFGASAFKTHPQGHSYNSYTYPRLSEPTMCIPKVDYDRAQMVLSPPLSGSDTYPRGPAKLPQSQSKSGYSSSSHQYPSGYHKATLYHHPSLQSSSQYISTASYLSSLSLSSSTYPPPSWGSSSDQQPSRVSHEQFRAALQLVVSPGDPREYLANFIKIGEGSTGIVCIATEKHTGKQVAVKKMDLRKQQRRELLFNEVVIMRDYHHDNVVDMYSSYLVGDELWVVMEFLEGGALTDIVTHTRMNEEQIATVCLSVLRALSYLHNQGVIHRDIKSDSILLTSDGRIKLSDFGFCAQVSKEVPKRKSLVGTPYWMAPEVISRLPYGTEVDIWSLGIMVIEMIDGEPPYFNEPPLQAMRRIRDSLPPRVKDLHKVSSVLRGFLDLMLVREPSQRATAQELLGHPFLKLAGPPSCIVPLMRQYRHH
T13 sequence (Q6DT37 whole entry): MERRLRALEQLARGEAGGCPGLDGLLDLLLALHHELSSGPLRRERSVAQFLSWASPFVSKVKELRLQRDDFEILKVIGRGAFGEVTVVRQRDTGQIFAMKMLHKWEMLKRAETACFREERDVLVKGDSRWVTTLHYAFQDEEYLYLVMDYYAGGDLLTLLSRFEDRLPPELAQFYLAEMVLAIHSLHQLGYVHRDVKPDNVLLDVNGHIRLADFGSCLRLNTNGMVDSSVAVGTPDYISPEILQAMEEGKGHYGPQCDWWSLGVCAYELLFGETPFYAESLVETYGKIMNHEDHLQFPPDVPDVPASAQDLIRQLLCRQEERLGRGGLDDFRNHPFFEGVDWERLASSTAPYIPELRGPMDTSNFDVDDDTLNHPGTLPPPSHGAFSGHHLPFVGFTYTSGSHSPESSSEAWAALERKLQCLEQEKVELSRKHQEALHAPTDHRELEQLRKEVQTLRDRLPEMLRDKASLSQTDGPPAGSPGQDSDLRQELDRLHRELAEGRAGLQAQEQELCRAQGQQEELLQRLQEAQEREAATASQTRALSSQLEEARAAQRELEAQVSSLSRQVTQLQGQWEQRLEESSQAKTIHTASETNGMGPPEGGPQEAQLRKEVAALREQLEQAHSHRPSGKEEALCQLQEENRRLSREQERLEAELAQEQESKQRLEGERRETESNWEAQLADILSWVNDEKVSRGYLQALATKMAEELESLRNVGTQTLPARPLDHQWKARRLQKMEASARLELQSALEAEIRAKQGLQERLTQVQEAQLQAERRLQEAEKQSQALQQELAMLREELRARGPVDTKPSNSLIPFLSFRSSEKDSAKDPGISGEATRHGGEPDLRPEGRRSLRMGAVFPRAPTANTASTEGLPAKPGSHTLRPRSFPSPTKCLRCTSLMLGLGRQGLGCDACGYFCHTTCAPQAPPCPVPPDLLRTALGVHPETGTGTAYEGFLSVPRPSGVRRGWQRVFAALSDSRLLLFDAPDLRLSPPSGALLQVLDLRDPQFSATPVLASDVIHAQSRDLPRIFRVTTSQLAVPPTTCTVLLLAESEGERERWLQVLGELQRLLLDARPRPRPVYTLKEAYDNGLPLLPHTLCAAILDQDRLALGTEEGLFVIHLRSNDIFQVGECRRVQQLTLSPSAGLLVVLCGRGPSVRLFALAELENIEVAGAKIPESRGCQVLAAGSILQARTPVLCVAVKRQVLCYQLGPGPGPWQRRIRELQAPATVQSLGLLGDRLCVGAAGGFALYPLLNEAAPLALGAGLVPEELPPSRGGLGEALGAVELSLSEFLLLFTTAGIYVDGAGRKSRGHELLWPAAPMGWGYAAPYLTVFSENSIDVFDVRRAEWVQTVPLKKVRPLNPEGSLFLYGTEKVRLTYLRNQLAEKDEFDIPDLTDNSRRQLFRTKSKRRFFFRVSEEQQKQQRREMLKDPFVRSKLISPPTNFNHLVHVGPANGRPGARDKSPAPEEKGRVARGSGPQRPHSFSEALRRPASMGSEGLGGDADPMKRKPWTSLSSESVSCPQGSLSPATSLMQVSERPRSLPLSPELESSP

Structure (SMILES): CO[C@@H]1[C@H](N(C)C(=O)CCC(=O)NCc2cn(CCCS(=O)(=O)O)nn2)C[C@H]2O[C@]1(C)n1c3ccccc3c3c4c(c5c6ccccc6n2c5c31)C(=O)NC4 [CIMSS]
- remaining activity at 10 µM [1]: 25.1%
- remaining activity at 10 µM [2]: 1.36%
- remaining activity at 10 µM [3]: 1.43%
- remaining activity at 10 µM [4]: 2.41%
- remaining activity at 10 µM [5]: 4.12%
- remaining activity at 10 µM [6]: 8.08%
- remaining activity at 10 µM [7]: 4.79%
- remaining activity at 10 µM [8]: 98.3%
- remaining activity at 10 µM [9]: 0.77%
- remaining activity at 10 µM [10]: 2.77%
- remaining activity at 10 µM [11]: 3.38%
- remaining activity at 10 µM [12]: 9.89%
- remaining activity at 10 µM [13]: 10.9%
- remaining activity at 10 µM [14]: 63%
- remaining activity at 10 µM [15]: 25%
- remaining activity at 10 µM [16]: 6.56%
- remaining activity at 10 µM [17]: 8.49%
- remaining activity at 10 µM [18]: 95.7%
- remaining activity at 10 µM [19]: 3.88%
- pIC50 ([20]; Supplementary Table 1, read-out: IC50 (Molar concentration)): 7.37
- remaining activity at 10 µM ([20]; read-out: % Enzyme Activity (relative to DMSO controls), 10µM): 6.32%
- remaining activity at 10 µM [21]: 29.5%
- remaining activity at 10 µM [22]: 75.8%
- remaining activity at 10 µM [23]: 49.3%
- remaining activity at 10 µM [24]: 2.71%
- remaining activity at 10 µM [25]: 1.49%
- remaining activity at 10 µM [26]: 4.33%
- remaining activity at 10 µM [27]: 1.33%
- remaining activity at 10 µM [28]: 1.67%
- remaining activity at 10 µM [29]: 7.72%
- remaining activity at 10 µM [30]: 21.2%
- remaining activity at 10 µM [31]: 1.9%
- remaining activity at 10 µM [32]: 33.4%
- remaining activity at 10 µM [33]: 21.3%
- remaining activity at 10 µM [34]: 7.78%
- remaining activity at 10 µM [35]: 8.36%
- remaining activity at 10 µM [36]: 41.6%
- remaining activity at 10 µM [37]: 30.5%
- remaining activity at 10 µM [38]: 6.83%
- remaining activity at 10 µM [39]: 1.71%
- remaining activity at 10 µM [40]: 90.8%
- remaining activity at 10 µM [41]: 69.8%
- remaining activity at 10 µM [42]: 1.62%
- remaining activity at 10 µM [43]: 14.5%
